Reference: PMC10447463, “Data-mining unveils structure–property–activity correlation of viral infectivity enhancing self-assembling peptides” (Nature Communications, 2023)
Values joined by “and” are separate entries in the source; they are usually repeats but may differ in a detail not shown here. Equal values may be shown once. Read-outs that look alike come from different tables or passages of the source.

Tests used:
[1] = β-sheet content by ATR-FT-IR; type: physicochemical; details: for b -sheet / %: Fig. S7 panel A, β-sheet content by ATR-FT-IR
Procedure, shortened: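 First, PNF was ultrafiltered (3 kDa MWCO, 16200 x g, 45 min, 4 °C). Next, filtrate and unfiltered sample were lyophilized and taken up in DMSO. Then fluorescamine was added for 20 min at RT before reading ex 365/em 470 nm. β-sheet: ATR FT-IR of lyophilized 1 mg/mL PNF.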

[2] = type: physicochemical; design: key to Fibril / Fibril Formation / TEM 2cat / Fibril: 1 = fibrils present; 0 non-fibrillar structures; details: for Fibril / Fibril Formation: 1 mg/mL, uranyl acetate stain, qualitative
[3] = type: physicochemical; details: for ThT Cat. / ThT-Fluorescence (categorical): ThT-active if fluorescence at least twice the control; for Tht category (> 1.5 to blank = +): category 1/0
Procedure, shortened: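 Fibrils (1 mg/mL solution) were mixed with 50 µM ThT in PBS for 15 min at RT, and fluorescence was read at λex 440/λem 488 nm against a PBS blank, as a triplicate mean ± SD. Zeta potential came from electrophoretic mobility (Smoluchowski) after 1 d aggregation at 1 mg/mL in PBS pH 7.4, diluted into 1 mM KCl.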

[4] = test system: HIV-1 infection of TZM-bl cells; assay: HIV-1 infectivity enhancement assay, β-galactosidase luminescence; type: cell-based; details: for Rel-EFC / Log10 Infection Rel EFC: 1.3 µM peptide; for Rel-EFC: infection relative to EF-C (QCKIKQIINMWQ = 1); for Log10 Infection Rel EFC: log10 of infection relative to EF-C; for Log Infectivity: Log10 infection relative to EF-C, TZM-bl cells; for Log10 Infection Rel EF-C: HIV-1 infection of TZM-bl cells; for Absolute Infectivity / RLU /s (Feb2021): unrounded values of the 1.3 µM column
[5] = TEM, 1 = fibrils present, 0 = non-fibrillar
[6] = TEM, 1 = fibrils present, 0 = non-fibrillar structures
[7] = category: fibrils present or non-fibrillar
[8] = Fig. S7 panel A (plotted against β-sheet content), asymmetric std dev errors
[9] = Log10 of infection rate relative to EF-C, Figure 3A source data
[10] = infection rate relative to EF-C, log10, data of Figure 2D
[11] = infection rate relative to EF-C, log10, source data of Figure 2C
[12] = Log10 of infection relative to EF-C, all peptides of FigS16
[13] = FigS12 panel A, fibril category by TEM
[14] = ThT fluorescence category, 1 if Rel. ThT >2
[15] = Fig S10 panel D, fibril category by TEM
[16] = ThT fluorescence relative to blank (42.1851851851852 a.u.)
[17] = relative to blank 42.1851851851852 a.u.
[18] = Feb2021, 1.3 µM value relative to virus only (0 µM)
[19] = Feb2021, Log10 of infectivity relative to EF-C
[20] = Feb2021, n-fold enhancement relative to EF-C
[21] = Feb2021, n-fold infectivity relative to EF-C
[22] = Feb2021 run, infectivity n-fold relative to virus alone
[23] = Feb2021 run, log10 of infectivity relative to EF-C
[24] = Feb2021 run, n-fold infectivity relative to EF-C
[25] = infectivity class (low / medium / high) of each library peptide, main list in c1-c6, same classes repeated in sub-lists of sequences containing the hydrophobicity/charge patterns P+,H0,P+,H0,P0,H0,P0, P+,H0,P0,H0,P0,H0,P0, P+,H0,P0,H0
[26] = log10 of HIV-1 infection of TZM-bl cells relative to EF-C, Fig S15 source data, asymmetric std dev errors

KFKFQFNMW
b -sheet / % [1]: 38.191% | TEM 2cat ([2]; Fig S10 panel D): 1 | Fibril / Fibril Formation ([2]; TEM): 1 | Fibril [2, 5]: 1 | Fibril [2, 6]: 1 | TEM 2cat [2, 7]: 1 | Tht category (> 2 to blank = +) ([3]; Fig S10 panel D): 0 (ThT-inactive (N-Fold <2)) | ThT Cat, ([3]; ThT category, 1 if Rel. ThT >2): 0 (ThT-inactive (N-Fold <2)) | ThT Cat. ([3]; ThT category, 1 if Rel. ThT >2): 0 (ThT-inactive (N-Fold <2)) | ThT Cat. / ThT-Fluorescence (categorical) [3]: 0 (ThT-inactive (N-Fold <2)) | Rel-EFC [4]: 0,45 | Log10 Infection Rel EFC [4]: -0,35 | Log Infectivity [4, 8]: -0.3503 | Log10 Infection Rel EF-C [4, 9]: -0.35 | Log10 Infection Rel EF-C [4, 10]: -0.3503 | Log10 Infection Rel EF-C [4, 11]: -0.3503 | Log10 of Rel to EFC (Feb2021) [4, 12]: -0.35 | Abs. Inf. ([4]; absolute infection signal, HIV-1 on TZM-bl cells, β-galactosidase luminescence): 6690 | Log10 Inf. rel. to EF-C ([4]; log10 of HIV-1 infection of TZM-bl cells relative to EF-C (EF-C = 0)): -0.3503

KLKQLL
b -sheet / % [1]: 31.78% | TEM 2cat ([2]; Fig S10 panel D): 0 | TEM 2cat [2, 13]: 0 | Fibril ([2]; FigS12 panel B, TEM): 0 | Fibril / Fibril Formation ([2]; TEM): 0 | Fibril [2, 5]: 0 | Fibril [2, 6]: 0 | Tht category (> 2 to blank = +) ([3]; Fig S10 panel D): 0 (ThT-inactive (N-Fold <2)) | Tht category (> 2 to blank = +) ([3]; FigS12 panel A): 0 (ThT-inactive (N-Fold <2)) | ThT Cat, ([3]; FigS12 panel B): 0 (ThT-inactive (N-Fold <2)) | ThT Cat, ([3]; ThT category, 1 if Rel. ThT >2): 0 (ThT-inactive (N-Fold <2)) | ThT Cat. [3, 14]: 0 (ThT-inactive (N-Fold <2)) | ThT Cat. / ThT-Fluorescence (categorical) [3]: 0 (ThT-inactive (N-Fold <2)) | Rel-EFC [4]: 0,01 | Log10 Infection Rel EFC [4]: -2,13 | Log Infectivity [4, 8]: -2.131 | Log10 Infection Rel EF-C [4, 9]: -2.13 | Log10 Infection Rel EF-C [4, 10]: -2.131 | Log10 Infection Rel EF-C [4, 11]: -2.131

CKIKIQINMWQ
b -sheet / % [1]: 44.89% | TEM 2cat [2, 15]: 1 | Fibril ([2]; Fig S10 panel E): 1 | Fibril / Fibril Formation ([2]; TEM): 1 | Fibril [2, 5]: 1 | Fibril [2, 6]: 1 | TEM 2cat [2, 7]: 1 | Tht category (> 2 to blank = +) ([3]; Fig S10 panel D): 1 (ThT. Cat is 1, if Rel. ThT >2) | ThT Cat. ([3]; Fig S10 panel E): 1 (ThT. Cat is 1, if Rel. ThT >2) | ThT Cat, ([3]; ThT category, 1 if Rel. ThT >2): 1 (ThT. Cat is 1, if Rel. ThT >2) | ThT Cat. [3, 14]: 1 (ThT. Cat is 1, if Rel. ThT >2) | ThT Cat. / ThT-Fluorescence (categorical) [3]: 1 (ThT. Cat is 1, if Rel. ThT >2) | Rel-EFC [4]: 0,7 | Log10 Infection Rel EFC [4]: -0,16 | Log Infectivity [4, 8]: -0.155 | Log Infectivity ([4]; Fig. S7 panel B (plotted against CR), rounded to two decimals, asymmetric std dev errors): -0.16 | Log10 Infection Rel EF-C [4, 9]: -0.16 | Log10 Infection Rel EF-C [4, 10]: -0.155 | Log10 Infection Rel EF-C [4, 11]: -0.155 | Log10 of Rel to EFC (Feb2021) [4, 12]: -0.16

RGDKIKIQI
b -sheet / % [1]: 40.49% | TEM 2cat [2, 15]: 1 | TEM 2cat [2, 13]: 1 | Fibril ([2]; FigS12 panel B, TEM): 1 | Fibril / Fibril Formation ([2]; TEM): 1 | Fibril [2, 5]: 1 | Fibril [2, 6]: 1 | Tht category (> 2 to blank = +) ([3]; Fig S10 panel D): 1 (ThT. Cat is 1, if Rel. ThT >2) | Tht category (> 2 to blank = +) ([3]; FigS12 panel A): 1 (ThT. Cat is 1, if Rel. ThT >2) | ThT Cat, ([3]; FigS12 panel B): 1 (ThT. Cat is 1, if Rel. ThT >2) | ThT Cat, ([3]; ThT category, 1 if Rel. ThT >2): 1 (ThT. Cat is 1, if Rel. ThT >2) | ThT Cat. [3, 14]: 1 (ThT. Cat is 1, if Rel. ThT >2) | ThT Cat. / ThT-Fluorescence (categorical) [3]: 1 (ThT. Cat is 1, if Rel. ThT >2) | Rel-EFC [4]: 0,02 | Log10 Infection Rel EFC [4]: -1,81 | Log Infectivity [4, 8]: -1.805 | Log10 Infection Rel EF-C [4, 9]: -1.81 | Log10 Infection Rel EF-C [4, 10]: -1.805 | Log10 Infection Rel EF-C [4, 11]: -1.805

CKFKFQFNMWQ [BL2]
FTIR ß-sheet content/ % [1]: 47.05% | FTIR ß-sheet content/ % ([1]; ATR-FT-IR): 47% and 47.05% | TEM: 1= fibrils, 0= aggregates (micelle), 0.5 = aggregates and fibrils, -1 = nothing obersved, STD prep [2]: 1 | Tht rel to blank (42.1851851851852) [3, 16]: 2.427 | Tht category (> 1.5 to blank = +) [3]: 1 (ThT. Cat is 1, if Rel. ThT >2) | Tht rel to blank (42.1851851851852) [3, 17]: 2.427 | n-fold to virus (Feb2021) [4, 18]: 48.74 | Log10 of Rel to EFC (Feb2021) [4, 19]: 0.06446 | Rel-to EFC (Feb-2021) [4, 20]: 1.16 | Rel-to EFC (Feb-2021) [4, 21]: 1.16 | Absolute Infectivity / RLU /s (Feb2021) ([4]; Feb2021): 26320 RLU /s | n-fold to virus (Feb2021) [4, 22]: 48.74 | Log10 of Rel to EFC (Feb2021) [4, 23]: 0.06446 | Rel-to EFC (Feb-2021) [4, 24]: 1.16 | infectivity [4, 25]: high | infectivity ([4]; infectivity class (low / medium / high) of the peptide in the sequence-pattern analysis, Fig. S22-A4, class limits not given): high | Log10 Inf. rel. to EF-C [4, 26]: 0.06446

KIKIQINM [JGB2]
FTIR ß-sheet content/ % [1]: 41% | FTIR ß-sheet content/ % ([1]; ATR-FT-IR): 41% | TEM: 1= fibrils, 0= aggregates (micelle), 0.5 = aggregates and fibrils, -1 = nothing obersved, STD prep [2]: 1 | Tht rel to blank (42.1851851851852) [3, 16]: 1.587 | Tht category (> 1.5 to blank = +) [3]: 0 (ThT-inactive (N-Fold <2)) | Tht rel to blank (42.1851851851852) [3, 17]: 1.587 | n-fold to virus (Feb2021) [4, 18]: 15.24 | Log10 of Rel to EFC (Feb2021) [4, 19]: -0.4404 | Rel-to EFC (Feb-2021) [4, 20]: 0.3627 | Rel-to EFC (Feb-2021) [4, 21]: 0.3627 | Absolute Infectivity / RLU /s (Feb2021) ([4]; Feb2021): 2947 RLU /s | n-fold to virus (Feb2021) [4, 22]: 15.24 | Log10 of Rel to EFC (Feb2021) [4, 23]: -0.4404 | Rel-to EFC (Feb-2021) [4, 24]: 0.3627 | infectivity [4, 25]: medium | Log10 Inf. rel. to EF-C [4, 26]: -0.4404

CEIEIQINMWQ [TM143]
FTIR ß-sheet content/ % [1]: 49.9% | FTIR ß-sheet content/ % ([1]; ATR-FT-IR): 49.9% | TEM: 1= fibrils, 0= aggregates (micelle), 0.5 = aggregates and fibrils, -1 = nothing obersved, STD prep [2]: 0.5 | Tht rel to blank (42.1851851851852) [3, 16]: 3.705 | Tht category (> 1.5 to blank = +) [3]: 1 (ThT. Cat is 1, if Rel. ThT >2) | Tht rel to blank (42.1851851851852) [3, 17]: 3.705 | n-fold to virus (Feb2021) [4, 18]: 9.188 | Log10 of Rel to EFC (Feb2021) ([4]; Feb2021, log10 of infectivity relative to EF-C): -0.6602 | Rel-to EFC (Feb-2021) [4, 21]: 0.2187 | Absolute Infectivity / RLU /s (Feb2021) ([4]; Feb2021): 12066.66667 RLU /s | infectivity [4, 25]: medium | Rel-to EFC (Feb-2021) ([4]; infectivity enhancement relative to EF-C (=1), Feb2021 run): 0.2187 | n-fold to virus (Feb2021) ([4]; infectivity n-fold relative to virus only, Feb2021 run): 9.188 | Log10 Inf. rel. to EF-C [4, 26]: -0.6602 | Log10 of Rel to EFC (Feb2021) ([4]; log10 of infectivity relative to EF-C, Feb2021 run): -0.6602
